Reference: patent publication US20240335364A1, “COMPOSITIONS OF DICAFFEOYLQUINIC ACIDS WITH TOCOPHEROL” (SYMRISE AG, priority 2021, published 2024)

Assays:
[1] = tested on: DSG1; assay: Modulation of DSG1 gene expression of keratinocytes (real-time qPCR, RQ); assay type: cell-based, human; parameters: key: relative quantity vs DMSO vehicle control (qPCR); conditions: nHEK, 24 h
Description: (§1) Neonatal human epidermal keratinocytes (nHEK) were cultivated in an EpiLife® medium (Gibco) including an HKGS kit (Gibco) with 5% CO2 at 37° C. in accordance with the supplier's instructions. The cells were treated for 24 hours, with 0.0005% of the different dicaffeoylquinic acids from above dissolved in DMSO and DMSO alone as the vehicle control. Genomic target expression levels in treated cells were measured using a quantitative Real-Time PCR comparison to vehicle control treatment.
(§2) RNA was isolated using Qiagen's RNeasy® Mini Kit. The total RNA concentrations were measured using Eppendorf's μCuvetteG 1.0 and BioPhotometer, by measuring the absorption at 260 nm. Purity control values such as E260/280 and E260/230 were calculated simultaneously. Reverse transcription was performed using the high-capacity RNA-to-cDNA kit of Applied Biosystems, in accordance with the supplier's instructions. Samples were treated in Biometra's PCR Thermocycler. For fast real-time qPCR, the cDNA was diluted with RNase-free water, and the TaqMan™ Fast Universal PCR Master Mix of Applied Biosystems was used. Quantitative real time PCR was performed using the StepOnePlus fast real-time PCR instrument by Applied Biosystems. Analysis was conducted using the StepOne software and […] (normalised to endogenous control […] expression). For upregulations, RQ values ≥2.5 are considered to be relevant.
(§3) Neonatal human epidermal keratinocytes (nHEK) were cultivated as described in Example 1 and treated for 24 hours with 0.0007% of the different monocaffeoylquinic acids. Afterwards fast real-time qPCR was performed as described in above using a customised gene array.
(§4) Neonatal human epidermal keratinocytes (nHEK) were cultivated as described in Example 1 and treated for 24 hours with 0.005% of the extract samples. Afterwards fast real-time qPCR was performed as described in above using a customized gene array.
(§5) Neonatal human epidermal keratinocytes (nHEK) were cultivated as described in Example 1 and treated for 24 hours with 4,5-dicaffeoylquinic acid (CAS number 14534-61-3, Phytolab GmbH & Co. KG) and (±)-α-tocopherol (CAS number 10191-41-0, synonym: Synonym: DL-α-Tocopherol, Vitamin E, Sigma-Aldrich, synthetic) alone and in combination. Afterwards fast real-time qPCR was performed as described in above using a customised gene array.
(§6) [formula] • With • A=RQ value by 4,5-dicaffeoylquinic acid at concentration x • B=RQ value by tocopherol at concentration y • C=RQ value by the combination of 4,5-dicaffeoylquinic acid at concentration x/2 and tocopherol at concentration y/2 • D=Factor for 4,5-dicaffeoylquinic acid=>0.5 (due to half concentration tested in the combination) • E=Factor for tocopherol=>0.5 (due to half concentration tested in the combination) • A SI=1 is obtained for additive activity of the two combined components, whereas a SI <1 proves antagonistic activity (observed efficacy is lower than additive) and SI >1 proves synergistic activity (observed efficacy is higher than additive).
(§7) Neonatal human epidermal keratinocytes (nHEK) were cultivated as described in Example 1 and treated for 24 hours with 3,4-dicaffeoylquinic acid (CAS number 57378-72-0, Phytolab GmbH & Co. KG) and (+)-α-tocopherol (CAS number 59-02-9, synonym: Synonym: D-α-tocopherol, Vitamin E, Sigma-Aldrich) alone and in combination. Afterwards fast real-time qPCR was performed as described in above using a customised gene array. For upregulations, RQ values ≥2.5 are considered to be relevant.
Neonatal human epidermal keratinocytes (nHEK) were cultivated as described above and treated for 24 hours with 3,5-dicaffeoylquinic acid (CAS number 2450-53-5, Phytolab GmbH & Co. KG) and D-α-tocopherol (CAS number 59-02-9, synonym: (+)-α-tocopherol, Vitamin E, trade name: Copherol® F 1300 C, BTC Europe GmbH) alone and in combination. Afterwards fast real-time qPCR was performed as described in above using a customised gene array. […]

[2] = tested on: DSC1; assay: Modulation of DSC1 gene expression of keratinocytes (real-time qPCR, RQ); assay type: cell-based, human; parameters: key: RQ: expression relative to DMSO vehicle control; conditions: nHEK, 24 h
Description: as §1, §2, §3, §4, §5, §6, §7
(§8) Neonatal human epidermal keratinocytes (nHEK) were cultivated as described above and treated for 24 hours with yarrow extract of example 3 (Achillea millefolium, freeze-dried fresh press juice of flowering aerials, cultivated in Germany) and (±)-α-tocopherol (CAS number 10191-41-0, synonym: Synonym: DL-α-Tocopherol, Vitamin E, Sigma-Aldrich, synthetic) alone and in two combinations. Afterwards fast real-time qPCR was performed as described in above using a customised gene array. […]

[3] = tested on: HSPB8; assay: Modulation of HSPB8 gene expression of keratinocytes (real-time qPCR, RQ); assay type: cell-based, human; parameters: key: RQ: expression relative to DMSO vehicle control (qPCR); conditions: nHEK, 24 h
Description: as §1, §2, §3, §4, §5, §6
(§9) Neonatal human epidermal keratinocytes (nHEK) were cultivated as described above and treated for 24 hours with yarrow extract of example 3 (Achillea millefolium, freeze-dried fresh press juice of flowering aerials, cultivated in Germany) and (±)-α-tocopherol (CAS number 10191-41-0, synonym: Synonym: DL-α-Tocopherol, Vitamin E, Sigma-Aldrich, synthetic) alone and in two combinations. Afterwards fast real-time qPCR was performed as described in above using a customised gene array.

[4] = tested on: HSPB2; assay: Modulation of HSPB2 gene expression of keratinocytes (real-time qPCR, RQ); assay type: cell-based, human; parameters: key: relative quantity vs DMSO vehicle control (qPCR); conditions: nHEK, 24 h
Description: as §1, §2, §3, §5, §6, §9

[5] = tested on: CLDN1; assay: Modulation of CLDN1 gene expression of keratinocytes (real-time qPCR, RQ); assay type: cell-based, human; conditions: nHEK, 24 h
Description: as §1, §2, §3, §4, §5, §6, §7, §9

[6] = tested on: CRYAB; assay: Modulation of CRYAB gene expression of keratinocytes (real-time qPCR, RQ); assay type: cell-based, human; parameters: key: relative quantity (RQ) vs DMSO vehicle-treated control; conditions: nHEK, 24 h
Description: as §1, §2, §3, §4, §5, §6
Neonatal human epidermal keratinocytes (nHEK) were cultivated as described above and treated for 24 hours with 3,5-dicaffeoylquinic acid (CAS number 2450-53-5, Phytolab GmbH & Co. KG) and D-α-tocopherol (CAS number 59-02-9, synonym: (+)-α-tocopherol, Vitamin E, trade name: Copherol® F 1300 C, BTC Europe GmbH) alone and in combination. Afterwards fast real-time qPCR was performed as described in above using a customised gene array.
as §8

[7] = tested on: DEFB1; assay: Modulation of DEFB1 gene expression of keratinocytes (real-time qPCR, RQ); assay type: cell-based, human; parameters: key: RQ = expression relative to DMSO vehicle control (qPCR); conditions: nHEK, 24 h
Description: as §1, §2, §3, §5, §6, §9
as §9, with “(+)-α-tocopherol” for “(±)-α-tocopherol”, “59-02-9,” for “10191-41-0,”, “D-α-tocopherol,” for “DL-α-Tocopherol,”, “Sigma-Aldrich)” for “Sigma-Aldrich, synthetic)”, “combination.” for “two combinations.”

[8] = tested on: OCLN; assay: Modulation of OCLN gene expression of keratinocytes (real-time qPCR, RQ); assay type: cell-based, human; parameters: key: RQ: expression relative to DMSO vehicle control (qPCR); conditions: nHEK, 24 h
Description: as §1, §2, §3, §4, §5, §6, §9

[9] = tested on: Neonatal human epidermal keratinocytes (nHEK); assay: Modulation of gene expression of keratinocytes, whole gene array (statements in words); assay type: cell-based; conditions: 24 h
Description: as §1, §2, §3, §4

[10] = 0.003% tocopherol alone, Example 8
[11] = 0.005% tocopherol alone, Example 7, Table 9
[12] = 0.005% tocopherol alone, Example 7, Table 10

Molecule: O=C(/C=C/c1ccc(O)c(O)c1)O[C@H]1[C@H](O)C[C@](O)(C(=O)O)C[C@H]1OC(=O)/C=C/c1ccc(O)c(O)c1 [4,5-Dicaffeoylquinic acid, 4,5-dicaffeoylquinic acid]
- RQ value DSG1 ([1]; 0.0005%, Example 1): 10.6
- RQ value DSG1 ([1]; 0.0007% alone, Example 4): 11.1
- RQ value DSC1 ([2]; 0.0005%, Example 1): 18.1
- RQ value DSC1 ([2]; 0.0007% alone, Example 4): 25.0
- RQ value HSPB8 ([3]; 0.0005%, Example 1): 4.2
- RQ value HSPB8 ([3]; 0.0007% alone, Example 4): 6.2
- RQ value HSPB2 ([4]; 0.0005%, Example 1): 4.3
- RQ value HSPB2 ([4]; 0.0007% alone, Example 4): 5.7
- RQ value CLDN1 ([5]; 0.0005%, Example 1): 3.5
- RQ value CLDN1 ([5]; 0.0007% alone, Example 4): 2.4
- RQ value CRYAB ([6]; 0.0005%, Example 1): 13.8
- RQ value CRYAB ([6]; 0.0007% alone, Example 4): 21.1
- RQ value DEFB1 ([7]; 0.0005%, Example 1): 3.2
- RQ value DEFB1 ([7]; 0.0007% alone, Example 4): 4.3
- RQ value OCLN ([8]; 0.0005%, Example 1): 2.4
- RQ value OCLN ([8]; 0.0007% alone, Example 4): 3.4

Molecule: O=C(/C=C/c1ccc(O)c(O)c1)O[C@H]1[C@H](O)C[C@](O)(C(=O)O)C[C@H]1O [4-caffeoyl-quinic acid, 4-caffeoylquinic acid]
- RQ value DSG1 ([1]; 0.0007%, Example 2): 1.9
- RQ value DSC1 ([2]; 0.0007%, Example 2): 2.2
- RQ value HSPB8 ([3]; 0.0007%, Example 2): 1.0
- RQ value HSPB2 ([4]; 0.0007%, Example 2): 2.2
- RQ value CLDN1 ([5]; 0.0007%, Example 2): 0.8
- RQ value CRYAB ([6]; 0.0007%, Example 2): 1.9
- RQ value DEFB1 ([7]; 0.0007%, Example 2): 1.9
- RQ value OCLN ([8]; 0.0007%, Example 2): 1.0

Molecule: O=C(/C=C/c1ccc(O)c(O)c1)O[C@@H]1C[C@@](O)(C(=O)O)C[C@@H](O)[C@@H]1O [5-caffeoyl-quinic acid, 5-caffeoylquinic acid]
- RQ value DSG1 ([1]; 0.0007%, Example 2): 0.5
- RQ value DSC1 ([2]; 0.0007%, Example 2): 0.7
- RQ value HSPB8 ([3]; 0.0007%, Example 2): 0.6
- RQ value HSPB2 ([4]; 0.0007%, Example 2): 1.0
- RQ value CLDN1 ([5]; 0.0007%, Example 2): 0.8
- RQ value CRYAB ([6]; 0.0007%, Example 2): 0.7
- RQ value DEFB1 ([7]; 0.0007%, Example 2): 0.7
- RQ value OCLN ([8]; 0.0007%, Example 2): 0.8

Molecule: Cc1c(C)c2c(c(C)c1O)CC[C@@](C)(CCC[C@H](C)CCC[C@H](C)CCCC(C)C)O2 [(+)-alpha-tocopherol, (+)-α-tocopherol]
- RQ value DSG1 ([1]; 0.003% alone, Example 5): 0.4
- RQ value DSG1 [1, 10]: 0.4
- RQ value DSG1 ([1]; 0.01% alone, Example 6): 0.7
- RQ value DSC1 ([2]; 0.003% alone, Example 5): 0.6
- RQ value DSC1 [2, 10]: 0.6
- RQ value CLDN1 ([5]; 0.003% alone, Example 5): 0.4
- RQ value CRYAB [6, 10]: 0.7
- RQ value CRYAB ([6]; 0.01% alone, Example 6): 0.5
- relevant modulation of the selected genes (RQ ≥2.5) ([9]; tocopherol alone at 0.003%): does not relevantly modulate any of the selected genes
- relevant modulation of the selected genes (RQ ≥2.5) ([9]; tocopherol alone at 0.01%): does not relevantly modulate any of the selected genes
- RQ value DEFB1 [7, 10]: 0.8

Molecule: (±)-α-tocopherol [(±)-alpha-tocopherol]
- RQ value DSG1 ([1]; 0.005% alone, Example 4): 1.3
- RQ value DSG1 [1, 11]: 1.4
- RQ value DSG1 [1, 12]: 2.0
- RQ value DSC1 ([2]; 0.005% alone, Example 4): 1.1
- RQ value DSC1 [2, 11]: 1.3
- RQ value DSC1 [2, 12]: 1.9
- RQ value HSPB8 ([3]; 0.005% alone, Example 4): 1.0
- RQ value HSPB8 [3, 11]: 1.2
- RQ value HSPB8 [3, 12]: 2.3
- RQ value HSPB2 ([4]; 0.005% alone, Example 4): 1.4
- RQ value CLDN1 ([5]; 0.005% alone, Example 4): 1.2
- RQ value CLDN1 [5, 11]: 1.3
- RQ value CLDN1 [5, 12]: 1.8
- RQ value CRYAB ([6]; 0.005% alone, Example 4): 1.4
- RQ value CRYAB [6, 11]: 1.3
- relevant modulation of the selected genes (RQ ≥2.5) ([9]; tocopherol alone at 0.005%): does not relevantly modulate any of the selected genes
- RQ value DEFB1 ([7]; 0.005% alone, Example 4): 1.3
- RQ value DEFB1 [7, 11]: 1.7
- RQ value OCLN ([8]; 0.005% alone, Example 4): 1.7
- RQ value OCLN [8, 11]: 2.4
